Laboratory results published in the NIST ThermoML archive (doi:10.1016/j.jct.2012.05.012).
Numbers after ± are expanded uncertainties.

Key:
[1] = wn = mass fraction of the nth substance listed; conditions: for surface tension liquid-gas: Maximal bubble pressure; for mass density: 101 kPa, Liquid, Vibrating tube method
[2] = refractive index (Na D-line) (dimensionless); wn = mass fraction of the nth substance listed; conditions: 101 kPa, Liquid, Standard Abbe refractometry

CCCCn1cc[n+](C)c1.NCC(=O)[O-] [1-butyl-3-methylimidazolium glycinate] + O
Conditions	mass density [kg/m3]	refractive index	surface tension liquid-gas [mN/m]
[1], 283.15 K, w2 = 0.0081	1121.2 ± 8	–	45.7 ± 0.4
[1], 283.15 K, w2 = 0.0091	–	–	45.9 ± 0.4
[1], 283.15 K, w2 = 0.0102	–	–	46.1 ± 0.4
[1], 283.15 K, w2 = 0.0118	–	–	46.3 ± 0.4
[1], 283.15 K, w2 = 0.0129	1121.5 ± 8	–	–
[1], 283.15 K, w2 = 0.0131	–	–	46.6 ± 0.4
[1], 283.15 K, w2 = 0.018	1121.8 ± 8	–	–
[1], 283.15 K, w2 = 0.0234	1122.2 ± 8	–	–
[1], 283.15 K, w2 = 0.0293	1122.6 ± 8	–	–
[1], 288.15 K, w2 = 0.0081	1118 ± 8	–	45.5 ± 0.4
[1], 288.15 K, w2 = 0.0091	–	–	45.7 ± 0.4
[1], 288.15 K, w2 = 0.0102	–	–	45.9 ± 0.4
[1], 288.15 K, w2 = 0.0118	–	–	46.2 ± 0.4
[1], 288.15 K, w2 = 0.0129	1118.3 ± 8	–	–
[1], 288.15 K, w2 = 0.0131	–	–	46.4 ± 0.4
[1], 288.15 K, w2 = 0.018	1118.7 ± 8	–	–
[1], 288.15 K, w2 = 0.0234	1119.1 ± 8	–	–
[1], 288.15 K, w2 = 0.0293	1119.5 ± 8	–	–
[1], 293.15 K, w2 = 0.0081	1114.8 ± 8	–	45.3 ± 0.4
[1], 293.15 K, w2 = 0.0091	–	–	45.5 ± 0.4
[1], 293.15 K, w2 = 0.0102	–	–	45.7 ± 0.4
[1], 293.15 K, w2 = 0.0118	–	–	46 ± 0.4
[1], 293.15 K, w2 = 0.0129	1115.1 ± 8	–	–
[1], 293.15 K, w2 = 0.0131	–	–	46.2 ± 0.4
[1], 293.15 K, w2 = 0.018	1115.5 ± 8	–	–
[1], 293.15 K, w2 = 0.0234	1115.9 ± 8	–	–
[1], 293.15 K, w2 = 0.0293	1116.3 ± 8	–	–
[1], 298.15 K, w2 = 0.0081	1111.5 ± 8	–	45 ± 0.4
[1], 298.15 K, w2 = 0.0091	–	–	45.2 ± 0.4
[1], 298.15 K, w2 = 0.0102	–	–	45.4 ± 0.4
[1], 298.15 K, w2 = 0.0118	–	–	45.7 ± 0.4
[1], 298.15 K, w2 = 0.0129	1111.9 ± 8	–	–
[1], 298.15 K, w2 = 0.0131	–	–	45.9 ± 0.4
[1], 298.15 K, w2 = 0.018	1112.3 ± 8	–	–
[1], 298.15 K, w2 = 0.0234	1112.7 ± 8	–	–
[1], 298.15 K, w2 = 0.0293	1113.1 ± 8	–	–
[1], 303.15 K, w2 = 0.0081	1108.4 ± 8	–	44.8 ± 0.4
[1], 303.15 K, w2 = 0.0091	–	–	45 ± 0.4
[1], 303.15 K, w2 = 0.0102	–	–	45.2 ± 0.4
[1], 303.15 K, w2 = 0.0118	–	–	45.5 ± 0.4
[1], 303.15 K, w2 = 0.0129	1108.9 ± 8	–	–
[1], 303.15 K, w2 = 0.0131	–	–	45.8 ± 0.4
[1], 303.15 K, w2 = 0.018	1109.3 ± 8	–	–
[1], 303.15 K, w2 = 0.0234	1109.7 ± 8	–	–
[1], 303.15 K, w2 = 0.0293	1110.2 ± 8	–	–
[1], 308.15 K, w2 = 0.0081	1105.4 ± 8	–	44.5 ± 0.4
[1], 308.15 K, w2 = 0.0091	–	–	44.7 ± 0.4
[1], 308.15 K, w2 = 0.0102	–	–	44.9 ± 0.4
[1], 308.15 K, w2 = 0.0118	–	–	45.2 ± 0.4
[1], 308.15 K, w2 = 0.0129	1105.7 ± 8	–	–
[1], 308.15 K, w2 = 0.0131	–	–	45.5 ± 0.4
[1], 308.15 K, w2 = 0.018	1106.2 ± 8	–	–
[1], 308.15 K, w2 = 0.0234	1106.6 ± 8	–	–
[1], 308.15 K, w2 = 0.0293	1107.1 ± 8	–	–
[1], 313.15 K, w2 = 0.0081	1102.2 ± 8	–	44.2 ± 0.4
[1], 313.15 K, w2 = 0.0091	–	–	44.4 ± 0.4
[1], 313.15 K, w2 = 0.0102	–	–	44.6 ± 0.4
[1], 313.15 K, w2 = 0.0118	–	–	44.9 ± 0.4
[1], 313.15 K, w2 = 0.0129	1102.6 ± 8	–	–
[1], 313.15 K, w2 = 0.0131	–	–	45.2 ± 0.4
[1], 313.15 K, w2 = 0.018	1103 ± 8	–	–
[1], 313.15 K, w2 = 0.0234	1103.4 ± 8	–	–
[1], 313.15 K, w2 = 0.0293	1103.9 ± 8	–	–
[1], 318.15 K, w2 = 0.0081	1099.2 ± 8	–	43.7 ± 0.4
[1], 318.15 K, w2 = 0.0091	–	–	43.9 ± 0.4
[1], 318.15 K, w2 = 0.0102	–	–	44.1 ± 0.4
[1], 318.15 K, w2 = 0.0118	–	–	44.4 ± 0.4
[1], 318.15 K, w2 = 0.0129	1099.5 ± 8	–	–
[1], 318.15 K, w2 = 0.0131	–	–	44.6 ± 0.4
[1], 318.15 K, w2 = 0.018	1099.9 ± 8	–	–
[1], 318.15 K, w2 = 0.0234	1100.3 ± 8	–	–
[1], 318.15 K, w2 = 0.0293	1100.7 ± 8	–	–
[1], 323.15 K, w2 = 0.0081	1096.1 ± 8	–	43.3 ± 0.4
[1], 323.15 K, w2 = 0.0091	–	–	43.5 ± 0.4
[1], 323.15 K, w2 = 0.0102	–	–	43.7 ± 0.4
[1], 323.15 K, w2 = 0.0118	–	–	44 ± 0.4
[1], 323.15 K, w2 = 0.0129	1096.4 ± 8	–	–
[1], 323.15 K, w2 = 0.0131	–	–	44.2 ± 0.4
[1], 323.15 K, w2 = 0.018	1096.8 ± 8	–	–
[1], 323.15 K, w2 = 0.0234	1097.2 ± 8	–	–
[1], 323.15 K, w2 = 0.0293	1097.6 ± 8	–	–
[1], 328.15 K, w2 = 0.0081	1092.9 ± 8	–	42.9 ± 0.4
[1], 328.15 K, w2 = 0.0091	–	–	43.1 ± 0.4
[1], 328.15 K, w2 = 0.0102	–	–	43.3 ± 0.4
[1], 328.15 K, w2 = 0.0118	–	–	43.5 ± 0.4
[1], 328.15 K, w2 = 0.0129	1093.2 ± 8	–	–
[1], 328.15 K, w2 = 0.0131	–	–	43.8 ± 0.4
[1], 328.15 K, w2 = 0.018	1093.6 ± 8	–	–
[1], 328.15 K, w2 = 0.0234	1094 ± 8	–	–
[1], 328.15 K, w2 = 0.0293	1094.4 ± 8	–	–
[2], 293.15 K, w2 = 0.0081	–	1.4993 ± 0.0005	–
[2], 293.15 K, w2 = 0.0102	–	1.4968 ± 0.0005	–
[2], 293.15 K, w2 = 0.0121	–	1.4944 ± 0.0005	–
[2], 293.15 K, w2 = 0.014	–	1.4918 ± 0.0005	–
[2], 293.15 K, w2 = 0.0161	–	1.4896 ± 0.0006	–
[2], 298.15 K, w2 = 0.0081	–	1.4982 ± 0.0005	–
[2], 298.15 K, w2 = 0.0102	–	1.4954 ± 0.0005	–
[2], 298.15 K, w2 = 0.0121	–	1.4928 ± 0.0005	–
[2], 298.15 K, w2 = 0.014	–	1.4907 ± 0.0005	–
[2], 298.15 K, w2 = 0.0161	–	1.4879 ± 0.0005	–
[2], 303.15 K, w2 = 0.0081	–	1.497 ± 0.0005	–
[2], 303.15 K, w2 = 0.0102	–	1.4941 ± 0.0005	–
[2], 303.15 K, w2 = 0.0121	–	1.4916 ± 0.0005	–
[2], 303.15 K, w2 = 0.014	–	1.4895 ± 0.0005	–
[2], 303.15 K, w2 = 0.0161	–	1.4869 ± 0.0005	–
[2], 308.15 K, w2 = 0.0081	–	1.4955 ± 0.0005	–
[2], 308.15 K, w2 = 0.0102	–	1.4927 ± 0.0005	–
[2], 308.15 K, w2 = 0.0121	–	1.4907 ± 0.0005	–
[2], 308.15 K, w2 = 0.014	–	1.4884 ± 0.0005	–
[2], 308.15 K, w2 = 0.0161	–	1.4858 ± 0.0005	–
[2], 313.15 K, w2 = 0.0081	–	1.4943 ± 0.0005	–
[2], 313.15 K, w2 = 0.0102	–	1.4915 ± 0.0005	–
[2], 313.15 K, w2 = 0.0121	–	1.4893 ± 0.0005	–
[2], 313.15 K, w2 = 0.014	–	1.4872 ± 0.0005	–
[2], 313.15 K, w2 = 0.0161	–	1.4845 ± 0.0005	–
[2], 318.15 K, w2 = 0.0081	–	1.4931 ± 0.0005	–
[2], 318.15 K, w2 = 0.0102	–	1.4904 ± 0.0005	–
[2], 318.15 K, w2 = 0.0121	–	1.4879 ± 0.0005	–
[2], 318.15 K, w2 = 0.014	–	1.4855 ± 0.0006	–
[2], 318.15 K, w2 = 0.0161	–	1.4832 ± 0.0005	–
[2], 323.15 K, w2 = 0.0081	–	1.4917 ± 0.0005	–
[2], 323.15 K, w2 = 0.0102	–	1.4888 ± 0.0005	–
[2], 323.15 K, w2 = 0.0121	–	1.4864 ± 0.0005	–
[2], 323.15 K, w2 = 0.014	–	1.4838 ± 0.0005	–
[2], 323.15 K, w2 = 0.0161	–	1.4814 ± 0.0006	–
